From patent US20250195433A1, “Compositions Having Improved Bioavailability of Therapeutics and Uses Thereof” (TRx Biosciences Limited, priority 2022, published 2025)

Experiments:
[1] = Solubility of olaparib in glycerolipids with and without digestion enhancers; type: physicochemical; details: 55 mg in 1 g of only MAISINE CC, only GELUCIRE 43/01, or their admixture, 130° C., stirred at least 60 minutes
[2] = Miscibility / self-emulsification test modelling ICH dissolution testing; type: physicochemical; details: 1 g of 100% or 75% preparation in 1 L PBS with […] curcumin, 37° C., stirring 300 rpm 10 min, then 10 min without stirring
Protocol: To assess whether oleic acid could self-emulsify at the concentrations used in the disclosed pharmaceutical compositions, experiments was performed that were designed to model dissolution testing according to International Council for Harmonisation (ICH) guidelines. […] Miscibility experiments were performed using two concentrations of oleic acid nominally above the CMC concentration for this fatty acid. In one series of experiments, 1 g of 100% oleic acid was added to the dissolution media. The control compound was 1 g of 100% MAISINE™ CC. In a second series of experiments 1 g of 75% oleic acid (diluted with 250 mg of MAISINE™ CC) was added to the dissolution media. The control compound was 1 g of 75% MAISINE™ CC. The miscibility of oleic acid and MAISINE™ CC was assessed by observing the dissolution media for 10 minutes with constant stirring and then 10 minutes without stirring. Photographs were taken at time 0, 1, 2, 3, 4, 5 and 10 minutes during the stirring phase and 2, 4 and 10 minutes after stirring ceased.

SMILES | solubility of olaparib in glycerolipids without digestion enhancers [1] | miscibility in dissolution media [2]
O=C(c1cc(Cc2n[nH]c(=O)c3ccccc23)ccc1F)N1CCN(C(=O)C2CC2)CC1 [olaparib] | remained insoluble | –
CCCCCCCC/C=C\CCCCCCCC(=O)O [oleic acid] | – | not miscible
